# Square brackets hold non-standard residues; d marks the D form. Peptide text beside a SMILES is read from it. * marks the point of attachment. Alaψ(CH2NMeCH2CH2OH) = C[C@@H](CN(C)CCO)N*; Cha = N[C@@H](CC1CCCCC1)C(=O)O; Lauroyl = CCCCCCCCCCCC(=O)*; Decanoyl = CCCCCCCCCC(=O)*; Octanoyl = CCCCCCCC(=O)*; Hexanoyl = CCCCCC(=O)*; Aib = CC(C)(N)C(=O)O; Propionyl = CCC(=O)*; Butyryl = CCCC(=O)*
# Legend:
# [1] = tested on: BxPC-3 cells; assay: PrestoBlue cell viability assay, comparative cytotoxicity assay under 'low glucose'; assay type: cell-based, human; details: 24 h exposure; for IC50: 'low glucose' RPMI 1640 (no glucose added), 50.8 pM to 1 µM, three independent experiments each in technical duplicate; for AUC, PrestoBlue, BxPC-3 / Emax @ 1 µM, PrestoBlue, BxPC-3: 'low glucose', three independent experiments in duplicate; for AUC, PrestoBlue, BxPC-3: area under viability-concentration curve, baseline y = 0; for Emax @ 1 µM, PrestoBlue, BxPC-3: response (percent viability) at highest concentration 1 µM
# From the text: (§1) Endpoint fluorescence was quantified as described above.
# [2] = tested on: PANC-1 cells; assay: as above; assay type: cell-based, human; details: 24 h exposure; for IC50: 'low glucose' DMEM (no glucose added), 457 pM to 9 µM, three independent experiments each in technical duplicate; for AUC, PrestoBlue, PANC-1 / Emax @ 9 µM, PrestoBlue, PANC-1: 'low glucose', three independent experiments in duplicate; for AUC, PrestoBlue, PANC-1: area under viability-concentration curve, baseline y = 0; for Emax @ 9 µM, PrestoBlue, PANC-1: response (percent viability) at highest concentration 9 µM
# From the text: as §1
# [3] = tested on: BxPC-3 cells; assay: CyQUANT Direct cell proliferation assay, comparative cytotoxicity assay under 'low glucose'; assay type: cell-based, human; details: 24 h exposure; for IC50: 'low glucose' RPMI 1640 (no glucose added), 50.8 pM to 1 µM, three independent experiments each in technical duplicate; for AUC, CyQUANT Direct, BxPC-3 / Emax @ 1 µM, CyQUANT Direct, BxPC-3: 'low glucose', three independent experiments in duplicate; for AUC, CyQUANT Direct, BxPC-3: area under viability-concentration curve, baseline y = 0; for Emax @ 1 µM, CyQUANT Direct, BxPC-3: response (percent viability) at highest concentration 1 µM
# From the text: as §1
# [4] = tested on: PANC-1 cells; assay: as above; assay type: cell-based, human; details: 24 h exposure; for IC50: 'low glucose' DMEM (no glucose added), 457 pM to 9 µM, three independent experiments each in technical duplicate; for AUC, CyQUANT Direct, PANC-1 / Emax @ 9 µM, CyQUANT Direct, PANC-1: 'low glucose', three independent experiments in duplicate; for AUC, CyQUANT Direct, PANC-1: area under viability-concentration curve, baseline y = 0; for Emax @ 9 µM, CyQUANT Direct, PANC-1: response (percent viability) at highest concentration 9 µM
# From the text: as §1
# [5] = tested on: BxPC-3 cells; details: 24 h exposure, medium with or without 5 mM glucose, up to 1 µM
# Description: (§2) Cells were seeded at a density of 25,000 cells/well (BxPC-3) and 30,000 cells/well (PANC-1) in Nunc MicroWell 96-Well Black Optical-Bottom Plates with Polymer Base (total volume: 100 µL). Cells were first incubated overnight at 37 °C, 5% CO2 to permit adherence, after which the medium in each well was aspirated, briefly washed once with 100 µL/well of PBS (pH 7.4) and replaced with 100 µL of either RPMI 1640 (BxPC-3, #11879020) or DMEM (PANC-1, #11966025) supplemented with or without 5 mM glucose to create the ‘normal glucose’ and ‘low glucose’ media, respectively. This 5 mM glucose concentration was selected to reflect the physiological concentration of glucose in plasma. Each well was then exposed to the peptides in duplicate at a concentration range of 50.8 pM to 1 µM (BxPC-3) or 457 pM to 9 µM (PANC-1) for 24 h (threefold serial dilution in the corresponding ‘normal glucose’ or ‘low glucose’ media, ten steps). Endpoint fluorescence was quantified as described above.
# (§3) Blank correction (wells containing medium only) was first performed on the raw fluorescence–concentration data from the plate reader. Cell viability was then calculated as a percentage by normalizing to the fluorescence of the wells containing the lowest drug concentration (50.8 pM for BxPC-3, 457 pM for PANC-1). The resulting data from three independent experiments (each in technical duplicate) was then plotted on GraphPad Prism 9 and analyzed using the built-in ‘[Inhibitor] vs. response—Variable slope (four parameters)’ equation.
# [6] = tested on: PANC-1 cells; details: 24 h exposure, medium with or without 5 mM glucose, up to 9 µM
# Description: as §2, §3
# [7] = tested on: BxPC-3 cells; assay: Initial cytotoxicity assay (PrestoBlue and CyQUANT Direct Confirmation Assay), 25 mM glucose; assay type: cell-based, human; details: 3-day (72 h) incubation, RPMI-1640 with 25 mM glucose, up to highest concentration tested of 1 µM, both viability assays
# Description: The CyQUANT™ Direct Cell Proliferation Assay was subsequently performed by mixing the CyQUANT™ Direct nucleic acid stain, CyQUANT™ Direct background suppressor I, and PBS (pH 7.4) as per the vendor instructions, then adding 100 µL of this mixture into each well. The plate was returned into the incubator for a further 1 h, and the endpoint fluorescence bottom-read at the Ex/Em wavelength of 485/538 nm on the SpectraMax iD3 plate reader. Blank wells (medium only) and two negative controls—(1) cells + medium, (2) cells + medium + 0.3% v/v DMSO (equivalent to 1 µM peptide)—were set up in the plate for each experiment.
Compound,IC50 [1] [µM],"AUC, PrestoBlue, BxPC-3 [1]","Emax @ 1 µM, PrestoBlue, BxPC-3 [1] [%]",IC50 [2] [µM],"AUC, PrestoBlue, PANC-1 [2]","Emax @ 9 µM, PrestoBlue, PANC-1 [2] [%]",IC50 [3] [µM],"AUC, CyQUANT Direct, BxPC-3 [3]","Emax @ 1 µM, CyQUANT Direct, BxPC-3 [3] [%]",IC50 [4] [µM],"AUC, CyQUANT Direct, PANC-1 [4]","Emax @ 9 µM, CyQUANT Direct, PANC-1 [4] [%]",Cytotoxicity against BxPC-3 under 'low glucose' vs 'normal glucose' (in words) [5],Cytotoxicity against PANC-1 under 'low glucose' vs 'normal glucose' (in words) [6],Inhibition of proliferation of BxPC-3 cells (in words) [7]
CCCCCCCCCCCC(=O)N1CCC[C@H]1C(=O)N[C@@H](CC1CCCCC1)C(=O)NC(C)(C)C(=O)NC(C)(C)C(=O)N[C@H](C(=O)N[C@H](C(=O)NC(C)(C)C(=O)NC(C)(C)C(=O)N[C@@H](C)CN(C)CCO)C(C)C)[C@@H](C)CC [(19)] (Lauroyl-P[Cha][Aib][Aib]IV[Aib][Aib]-{Alaψ(CH2NMeCH2CH2OH)}),0.1,1.6 ×10^−5,4.6,0.2,21.4 ×10^−5,4.7,0.1,2.6 ×10^−5,18.3,0.8,38.9 ×10^−5,26.4,,,
CCC(=O)N1CCC[C@H]1C(=O)N[C@@H](CC1CCCCC1)C(=O)NC(C)(C)C(=O)NC(C)(C)C(=O)N[C@H](C(=O)N[C@H](C(=O)NC(C)(C)C(=O)NC(C)(C)C(=O)N[C@@H](C)CN(C)CCO)C(C)C)[C@@H](C)CC [(14)] (Propionyl-P[Cha][Aib][Aib]IV[Aib][Aib]-{Alaψ(CH2NMeCH2CH2OH)}),0.6,6.8 ×10^−5,25.1,1.8,38.4 ×10^−5,31.5,0.6,6.8 ×10^−5,27.3,7,51.8 ×10^−5,51.5,,,
CCCC(=O)N1CCC[C@H]1C(=O)N[C@@H](CC1CCCCC1)C(=O)NC(C)(C)C(=O)NC(C)(C)C(=O)N[C@H](C(=O)N[C@H](C(=O)NC(C)(C)C(=O)NC(C)(C)C(=O)N[C@@H](C)CN(C)CCO)C(C)C)[C@@H](C)CC [(15)] (Butyryl-P[Cha][Aib][Aib]IV[Aib][Aib]-{Alaψ(CH2NMeCH2CH2OH)}),0.5,5.8 ×10^−5,16.3,0.9,33.6 ×10^−5,31.0,0.5,5.8 ×10^−5,33.8,4.8,50.3 ×10^−5,53.7,,,
CCCCCCCCCC(=O)N1CCC[C@H]1C(=O)N[C@@H](CC1CCCCC1)C(=O)NC(C)(C)C(=O)NC(C)(C)C(=O)N[C@H](C(=O)N[C@H](C(=O)NC(C)(C)C(=O)NC(C)(C)C(=O)N[C@@H](C)CN(C)CCO)C(C)C)[C@@H](C)CC [(18)] (Decanoyl-P[Cha][Aib][Aib]IV[Aib][Aib]-{Alaψ(CH2NMeCH2CH2OH)}),0.2,3.3 ×10^−5,5.5,0.2,22.2 ×10^−5,3.3,0.2,3.9 ×10^−5,30.0,2.2,44.7 ×10^−5,41.7,,,
CCCCCCCC(=O)N1CCC[C@H]1C(=O)N[C@@H](CC1CCCCC1)C(=O)NC(C)(C)C(=O)NC(C)(C)C(=O)N[C@H](C(=O)N[C@H](C(=O)NC(C)(C)C(=O)NC(C)(C)C(=O)N[C@@H](C)CN(C)CCO)C(C)C)[C@@H](C)CC [(17)] (Octanoyl-P[Cha][Aib][Aib]IV[Aib][Aib]-{Alaψ(CH2NMeCH2CH2OH)}),0.4,5.1 ×10^−5,20.0,0.6,25.5 ×10^−5,8.1,0.5,5.6 ×10^−5,33.5,2,43.7 ×10^−5,31.6,,,
CC[C@H](C)[C@H](NC(=O)C(C)(C)NC(=O)C(C)(C)NC(=O)[C@H](CC1CCCCC1)NC(=O)[C@@H]1CCCN1)C(=O)N[C@H](C(=O)NC(C)(C)C(=O)NC(C)(C)C(=O)N[C@@H](C)CN(C)CCO)C(C)C [(12)] (H-P[Cha][Aib][Aib]IV[Aib][Aib]-{Alaψ(CH2NMeCH2CH2OH)}),> 1,10.2 ×10^−5,104.0,> 9,90.6 ×10^−5,101.0,> 1,11 ×10^−5,115.0,> 9,92.6 ×10^−5,107.0,inactivity,inactivity,
trichoderin A [(3)],0.4,5.4 ×10^−5,3.6,0.3,21.7 ×10^−5,4.7,0.4,4.9 ×10^−5,19.6,1.5,41.0 ×10^−5,28.2,,,only partially inhibited the proliferation
CCCCCC(=O)N1CCC[C@H]1C(=O)N[C@@H](CC1CCCCC1)C(=O)NC(C)(C)C(=O)NC(C)(C)C(=O)N[C@H](C(=O)N[C@H](C(=O)NC(C)(C)C(=O)NC(C)(C)C(=O)N[C@@H](C)CN(C)CCO)C(C)C)[C@@H](C)CC [(16)] (Hexanoyl-P[Cha][Aib][Aib]IV[Aib][Aib]-{Alaψ(CH2NMeCH2CH2OH)}),0.4,5.0 ×10^−5,7.1,0.5,24.3 ×10^−5,7.7,0.4,5.2 ×10^−5,21.0,2,42.1 ×10^−5,41.0,,,
CC[C@H](C)[C@H](NC(=O)C(C)(C)NC(=O)C(C)(C)NC(=O)[C@H](CC1CCCCC1)NC(=O)[C@@H]1CCCN1C(C)=O)C(=O)N[C@H](C(=O)NC(C)(C)C(=O)NC(C)(C)C(=O)N[C@@H](C)CN(C)CCO)C(C)C [(13)] (Ac-P[Cha][Aib][Aib]IV[Aib][Aib]-{Alaψ(CH2NMeCH2CH2OH)}),> 1,9.5 ×10^−5,94.0,6,58.9 ×10^−5,34.6,> 1,11 ×10^−5,111.3,8.5,67.8 ×10^−5,48.1,,sufficient to induce cytotoxic effects,
